Experimental data: patent US20150315130A1, “New positive allosteric modulators of nicotinic acetylcholine receptor” (H. LUNDBECK A/S, priority 2012, published 2015)

What follows are molecules tested against T1, human α7 receptor (Homo sapiens, UniProt P36544) (assay: α7 NNR flux assay (FDSS calcium flux, Calcium-4 dye, PAM mode with acetylcholine)). Details: human α7 receptor stably expressed in rat GH4C1 cells; enhancement of response to 20 μM acetylcholine; % modulation relative to PNU-120596 set to 100%.
T1 construct: host or cells: rat GH4C1 cell line
T1 sequence (P36544 23-502): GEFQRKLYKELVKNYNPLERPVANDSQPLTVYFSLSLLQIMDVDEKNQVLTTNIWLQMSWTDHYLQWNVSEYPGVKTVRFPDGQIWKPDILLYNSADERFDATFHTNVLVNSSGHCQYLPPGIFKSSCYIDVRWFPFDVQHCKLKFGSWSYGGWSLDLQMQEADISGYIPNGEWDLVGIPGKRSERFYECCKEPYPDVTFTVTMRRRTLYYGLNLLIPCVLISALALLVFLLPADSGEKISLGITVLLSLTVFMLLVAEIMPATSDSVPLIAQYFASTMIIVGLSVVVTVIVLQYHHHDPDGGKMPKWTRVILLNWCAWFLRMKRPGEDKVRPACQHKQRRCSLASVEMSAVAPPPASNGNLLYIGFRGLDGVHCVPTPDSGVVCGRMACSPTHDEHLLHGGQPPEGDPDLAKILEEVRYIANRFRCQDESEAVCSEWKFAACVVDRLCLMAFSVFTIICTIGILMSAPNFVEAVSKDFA
Assay type: cell-based
Description: The nicotinic acetylcholine receptor α7 is a calcium-permeable ion channel, whose activity can be measured by over expression in mammalian cells or oocytes. These two individual assays are described in Example 2 and 3, respectively.
In this version of the assay, the human α7 receptor is stably expressed in the rat GH4C1 cell line. The assay was used to identify positive allosteric modulators (PAMs) of the α7 receptor. Activation of the channel was measured by loading cells with the calcium-sensitive fluorescent dye Calcium-4 (Assay kit from Molecular Devices), and then measuring real-time changes in fluorescence upon treatment with test compounds.
The cell line ChanClone GH4C1-nAChRalphα7 from Genionics was seeded from frozen stock in 384-well plates in culture media 2-3 days before experiment to form an approximately 80% confluent layer on the day of experiment.
The cell culture was split into “22.5 cm×22.5 cm”-plates with approximately 100×10^3 cells/cm^2. After four days incubation in a humidified incubator at 37° C. and 5% CO2, it had grown to an 80-90% confluent layer, and the cells were harvested.
Two or three days before the experiment the cells were seeded in 384 well plates from Greiner bio-one (781946, CELLCOAT, Poly-D-Lysine, black, μClear).
The media was poured off and the plate washed with PBS and left to drain. 5 mL Trypsin was added, cells were washed and incubated (at room temperature) for about 10 seconds. Trypsin was poured of quickly and the cells were incubated for 2 minutes at 37° C. (if the cells were not already detached). Cells were resuspended in 10 mL culture media and transferred to 50 mL tubes.
The cell suspension was counted (NucleoCounter, total cell count) from the first plates to estimate the total cell number of the whole batch.
The cells were seeded in 384 well plates with 30 μL/well (30000 cells/well) while stirring the cell suspension or otherwise preventing the cells from precipitating.
The plates were incubated at room temperature for 30-45 minutes.
The plates were placed in incubator for two days (37° C. and 5% CO2).
The loading buffer was 5% v/v Calcium-4 Kit and 2.5 mM Probenecid in assay buffer.
Culture media were removed from the cell plates and 20 μL loading buffer was added in each well. The cell plates were placed in trays and incubated 90 minutes in the incubator (37° C.). Thereafter the plates were incubated 30 minutes at room temperature, still protected from light.
Now the cell plates were ready to run in the Functional Drug Screening System (FDSS).
The assay buffer was HBSS with 20 mM HEPES, pH 7.4 and 3 mM CaCl2.
200 nL 10 mM compound solution in DMSO was diluted in 50 μL assay buffer. The final test concentrations in the cell plates were 20-10-5-2.5-1.25-0.625-0.312-0.156-0.078-0.039 μM. Assay buffer and 3 μM PNU-120596 were used for control.
The agonist acetylcholine was added to a final concentration of 20 μM (˜E0100). In the FDSS7000 the Ex480-Em540 was measured with 1 second intervals. The baseline was made of 5 frames before addition of test compounds, and 95 frames more were made before addition of acetylcholine. The measurement stopped 30 frames after the 2nd addition. Raw data for each well were collected as “the maximum fluorescence count” in the interval 100-131 seconds and as “the average fluorescence count” in the interval 96-100 seconds. The positive allosteric modulation in the 2nd addition was the enhancement of agonist response with test compound compared to agonist alone.
Results were calculated as % modulation of test compound compared to the reference PNU-120596 set to 100%.
Work on `O=C(N[C@@H](CO)c1ccc(OCCF)cc1)[C@H]1C[C@@H]1c1ccc(F)cc1` [Compound 25, (1S,2S)-2-(4-Fluoro-phenyl)-cyclopropanecarboxylic acid {(R)-1-[4-(2-fluoro-ethoxy)-phenyl]-2-hydroxy-ethyl}-amide] yielded an EC50 of 140 nM.
For `COC[C@H](NC(=O)[C@H]1C[C@@H]1c1ccc(F)cc1)c1ccc(OC)cc1` [Compound 20, (1S,2S)-2-(4-Fluoro-phenyl)-cyclopropanecarboxylic acid [(R)-2-methoxy-1-(4-methoxy-phenyl)-ethyl]-amide], the EC50 was 84 nM.
With `C[C@H](NC(=O)[C@H]1C[C@@H]1c1ccccc1)c1cccc(F)c1` [Compound 6, (1S,2S)-2-Phenyl-cyclopropanecarboxylic acid [(S)-1-(3-fluoro-phenyl)-ethyl]-amide] the EC50 was 3100 nM.
Work on `O=C(N[C@@H](CO)c1ccc(OCCF)cc1)[C@H]1C[C@@H]1c1ccccc1` [Compound 24, (1S,2S)-2-Phenyl-cyclopropanecarboxylic acid {(R)-1-[4-(2-fluoro-ethoxy)phenyl]-2-hydroxy-ethyl}-amide] yielded an EC50 of 1500 nM.
Work on `CCOc1ccc([C@H](COC)NC(=O)[C@H]2C[C@@H]2c2ccccc2)cc1` [Compound 17, (1S,2S)-2-Phenyl-cyclopropanecarboxylic acid [(R)-1-(4-ethoxy-phenyl)-2-methoxy-ethyl]-amide] yielded an EC50 of 33 nM.
With `COC[C@H](NC(=O)[C@H]1C[C@@H]1c1cccc(F)c1)c1ccc(OC)cc1` [Compound 21, (1S,2S)-2-(3-Fluoro-phenyl)-cyclopropanecarboxylic acid [(R)-2-methoxy-1-(4-methoxy-phenyl)-ethyl]-amide] the EC50 was 1100 nM.
`O=C(N[C@@H](CCO)c1ccccc1)[C@H]1C[C@@H]1c1ccccc1` [Compound 2, (1S,2S)-2-Phenyl-cyclopropanecarboxylic acid ((S)-3-hydroxy-1-phenyl-propyl)-amide] showed an EC50 of 4900 nM.
Molecule `O=C(N[C@@H](CO)c1ccc(O)cc1)[C@H]1C[C@@H]1c1ccccc1` [Compound 18, (1S,2S)-2-Phenyl-cyclopropanecarboxylic acid [(R)-2-hydroxy-1-(4-hydroxy-phenyl)-ethyl]-amide] has an EC50 of 3900 nM.
`C[C@H](NC(=O)[C@H]1C[C@@H]1c1ccccc1)c1ccc(F)cc1` [Compound 3, (1S,2S)-2-Phenyl-cyclopropanecarboxylic acid [(S)-1-(4-fluoro-phenyl)-ethyl]-amide] was tested, and the EC50 was 2400 nM.
Molecule `COc1ccc([C@H](CO)NC(=O)[C@H]2C[C@@H]2c2cccc(F)c2)cc1` [Compound 4, (1S,2S)-2-(3-Fluoro-phenyl)-cyclopropanecarboxylic acid [(R)-2-hydroxy-1-(4-methoxy-phenyl)-ethyl]-amide] has an EC50 of 1200 nM.
For `CCOc1ccc([C@H](CO)NC(=O)[C@H]2C[C@@H]2c2ccccc2)cc1` [Compound 8, (1S,2S)-2-Phenyl-cyclopropanecarboxylic acid [(R)-1-(4-ethoxy-phenyl)-2-hydroxy-ethyl]-amide], the EC50 was 270 nM.
With `COC[C@H](NC(=O)[C@H]1C[C@@H]1c1ccccc1)c1ccc(O)cc1` [Compound 19, (1S,2S)-2-Phenyl-cyclopropanecarboxylic acid [(R)-1-(4-hydroxy-phenyl)-2-methoxy-ethyl]-amide] the EC50 was 3600 nM.
`COc1ccc([C@H](CO)NC(=O)[C@H]2C[C@@H]2c2ccc(F)cc2)cc1` [Compound 13, (1S,2S)-2-(4-Fluoro-phenyl)-cyclopropanecarboxylic acid [(R)-2-hydroxy-1-(4-methoxy-phenyl)-ethyl]-amide] showed an EC50 of 510 nM.
Work on `COc1ccc([C@H](CO)NC(=O)[C@H]2C[C@@H]2c2ccccc2F)cc1` [Compound 15, (1S,2S)-2-(2-Fluoro-phenyl)-cyclopropanecarboxylic acid [(R)-2-hydroxy-1-(4-methoxy-phenyl)-ethyl]-amide] yielded an EC50 of 1200 nM.
`COc1ccc([C@H](CO)NC(=O)[C@H]2C[C@@H]2c2ccccc2)c(F)c1` [Compound 9, (1S,2S)-2-Phenyl-cyclopropanecarboxylic acid [(R)-1-(2-fluoro-4-methoxy-phenyl)-2-hydroxy-ethyl]-amide] was tested, and the EC50 was 610 nM.
Molecule `C[C@H](NC(=O)[C@H]1C[C@@H]1c1ccccc1)c1ccccc1F` [Compound 12, (1S,2S)-2-Phenyl-cyclopropanecarboxylic acid [(S)-1-(2-fluoro-phenyl)-ethyl]-amide] has an EC50 of 1900 nM.
With `COc1cccc([C@H](C)NC(=O)[C@H]2C[C@@H]2c2ccccc2)c1` [Compound 11, (1S,2S)-2-Phenyl-cyclopropanecarboxylic acid [(S)-1-(3-methoxy-phenyl)ethyl]-amide] the EC50 was 3000 nM.
`COc1ccc([C@H](C)NC(=O)[C@H]2C[C@@H]2c2ccccc2)cc1` [Compound 1, (1S,2S)-2-Phenyl-cyclopropanecarboxylic acid [(S)-1-(4-methoxy-phenyl)ethyl]-amide] gave an EC50 of 1500 nM.
`O=C(N[C@@H](CO)c1ccc(OC(F)(F)F)cc1)[C@H]1C[C@@H]1c1ccccc1` [Compound 7, (1S,2S)-2-Phenyl-cyclopropanecarboxylic acid [(R)-2-hydroxy-1-(4-trifluoromethoxy-phenyl)-ethyl]-amide] showed an EC50 of 3600 nM.
`COc1ccc([C@H](CO)NC(=O)[C@H]2C[C@@H]2c2cccc(F)c2)cc1` [Compound 14, (1S,2S)-2-(3-Fluoro-phenyl)-cyclopropanecarboxylic acid [(R)-2-hydroxy-1-(4-methoxy-phenyl)-ethyl]-amide] was tested, and the EC50 was 400 nM.
`COC[C@H](NC(=O)[C@H]1C[C@@H]1c1ccccc1)c1ccc(OC)cc1` [Compound 16, (1S,2S)-2-Phenyl-cyclopropanecarboxylic acid [(R)-2-methoxy-1-(4-methoxy-phenyl)-ethyl]-amide] showed an EC50 of 160 nM.
`Cc1ccc([C@H](C)NC(=O)[C@H]2C[C@@H]2c2ccccc2)cc1` [Compound 5, (1S,2S)-2-Phenyl-cyclopropanecarboxylic acid ((S)-1-p-tolyl-ethyl)-amide] was tested, and the EC50 was 3800 nM.
`O=C(N[C@@H](CO)c1ccc(O)cc1)[C@H]1C[C@@H]1c1ccc(F)cc1` [Compound 22, (1S,2S)-2-(4-Fluoro-phenyl)-cyclopropanecarboxylic acid [(R)-2-hydroxy-1-(4-hydroxy-phenyl)-ethyl]-amide] gave an EC50 of 3200 nM.
Molecule `COc1ccc([C@H](CO)NC(=O)[C@H]2C[C@@H]2c2ccccc2)cc1` [Compound 10, (1S,2S)-2-Phenyl-cyclopropanecarboxylic acid [(R)-2-hydroxy-1-(4-methoxy-phenyl)-ethyl]-amide] has an EC50 of 645 nM.
With `O=C(N[C@@H](CO)c1ccc(O)cc1)[C@H]1C[C@@H]1c1cccc(F)c1` [Compound 23, (1S,2S)-2-(3-Fluoro-phenyl)-cyclopropanecarboxylic acid [(R)-2-hydroxy-1-(4-hydroxy-phenyl)-ethyl]-amide] the EC50 was 3800 nM.
